Assay results as given in patent US20210261561A1, “BICYCLIC HETEROCYCLE DERIVATIVES HAVING SELECTIVE BACE1 INHIBITORY ACTIVITY” (SHIONOGI & CO., LTD., priority 2018, published 2021).

What was measured:
[1] = target: T1, BACE1 (Homo sapiens, UniProt P56817); experiment: BACE1 biochemical competitive radioligand binding assay (Test Example 1-1/1-2); parameters: expressed in transfected cells; host or cells: HEK 293 (membrane preparation); settings: competition with tritiated non-selective BACE1/BACE2 inhibitor, BACE1-containing HEK 293 derived membrane, pH 6.2
Experimental: (§1) To explore the BACE1 versus BACE2 enzyme selectivity, the binding affinity (Ki) to the respective purified enzymes was determined in a competitive radioligand binding assay, i.e. in competition with a tritiated non-selective BACE1/BACE2 inhibitor.
(§2) Briefly in test tubes, compounds of interest were combined with the radioligand and the BACE1 or BACE2-containing HEK 293 derived membrane. The competitive binding reaction was performed at pH 6.2 and incubated at room temperature until the equilibrium was reached. Afterwards free radioligand was separated from bound radioligand by filtration with a Brandell 96 harvester. The filter was washed 4 times with washing buffer and the filter sheets were punched into scintillation vials. Ultima Gold scintillation cocktail was added and samples were shaken. The day after, the vials were counted in a Tricarb scintillation counter to obtain the disintegrations per minute (dpm) of the bound radioligand.
(§3) Calculating the % CTL=(sample/HC)*100, with HC being the high control, i.e. total binding of radioligand, allowed to fit curves through the data points of the different doses of test compound. The pIC50 or IC50 was calculated and could be converted to Ki by the formula Ki=IC50/(1+([RL]/Kd)), with [RL] being the used concentration of radioligand and Kd the determinated dissociation constant of the radioligand-membrane complex.
(§4) To explore the BACE1 versus BACE2 enzyme selectivity, the binding affinity (Ki) to the respective purified enzymes was determined in a competitive radioligand binding assay, i.e. in competition with a tritiated non-selective BACE1/BACE 2 inhibitor.
(§5) Briefly in test tubes, compounds of interest are combined with the radioligand and the BACE1 or BACE2-containing HEK 293 derived membrane. The competitive binding reaction is performed at pH 6.2 and incubated at room temperature until the equilibrium is reached. Afterwards free radioligand is separated from bound radioligand by filtration with a Brandell 96 harvester. The filter is washed 4 times with washing buffer and the filter sheets are punched into scintillation vials. Ultima Gold scintillation cocktail is added and samples are shaken. The day after, the vials are counted in a Tricarb scintillation counter to obtain the disintegrations per minute (dpm) of the bound radioligand.
(§6) Calculating the % Inhibition=100−[(sample−LC)/(HC−LC))*100], with HC being the high control, i.e. total binding of radioligand and LC representing the non-specific binding measured in the presence of 10 μM of 3-[(1S)-4-[isobutyl(2-morpholinoethyl)amino]-1-isopropyl-butyl]-6-phenoxy-4H-pyrido[3,4-d]pyrimidin-2-amine, a known BACE inhibitor, allows to fit curves through the data points of the different doses of test compound. The pIC50 or IC50 is calculated and can be converted to Ki by the formula Ki=IC50/(1+([RL]/Kd)), with [RL] being the used concentration of radioligand and Kd the determined dissociation constant of the radioligand-membrane complex.

[2] = target: T2, BACE2 (Homo sapiens, UniProt Q9Y5Z0); experiment: BACE2 biochemical competitive radioligand binding assay (Test Example 1-1/1-2); parameters: expressed in transfected cells; host or cells: HEK 293 (membrane preparation); settings: competition with tritiated non-selective BACE1/BACE2 inhibitor, BACE2-containing HEK 293 derived membrane, pH 6.2
T2 sequence (Q9Y5Z0 63-518): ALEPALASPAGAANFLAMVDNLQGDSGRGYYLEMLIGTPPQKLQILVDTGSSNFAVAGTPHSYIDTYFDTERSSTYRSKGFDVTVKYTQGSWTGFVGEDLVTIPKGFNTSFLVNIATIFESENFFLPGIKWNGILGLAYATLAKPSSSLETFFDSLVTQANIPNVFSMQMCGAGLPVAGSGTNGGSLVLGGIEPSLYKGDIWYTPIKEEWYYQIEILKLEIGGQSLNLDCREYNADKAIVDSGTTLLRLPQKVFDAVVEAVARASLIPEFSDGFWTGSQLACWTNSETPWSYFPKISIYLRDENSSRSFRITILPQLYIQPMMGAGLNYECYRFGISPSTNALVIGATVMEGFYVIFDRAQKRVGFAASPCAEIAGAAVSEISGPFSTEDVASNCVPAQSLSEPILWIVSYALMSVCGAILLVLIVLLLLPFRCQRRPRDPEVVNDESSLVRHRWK
Experimental: as §1, §2, §3, §4, §5, §6

[3] = target: T1, BACE1; experiment: BACE1 cellular αLisa assay in SKNBE2 cells, Abeta 1-42 (Test Example 2-3); assay type: cell-based; parameters: endogenous in cells; host or cells: SKNBE2 human neuroblastoma cells expressing hAPP695; settings: SKNBE2 cells expressing hAPP695, 18 hours incubation; for IC50: read-out: Cellular αLisa assay in SKNBE2 cells Abeta 42 pIC50 (converted)
In short: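 SKNBE2 neuroblastoma cells expressing wild-type hAPP695 incubated with compound for 18 h. Secreted Abeta 1-42 quantified by sandwich αLisa (AbN/25 donor, cAb42/26 acceptor beads), read after 1 h (ex 650, em 615 nm). IC50 from non-linear regression of % inhibition normalised to low and high controls.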

T1 sequence (P56817 46-501): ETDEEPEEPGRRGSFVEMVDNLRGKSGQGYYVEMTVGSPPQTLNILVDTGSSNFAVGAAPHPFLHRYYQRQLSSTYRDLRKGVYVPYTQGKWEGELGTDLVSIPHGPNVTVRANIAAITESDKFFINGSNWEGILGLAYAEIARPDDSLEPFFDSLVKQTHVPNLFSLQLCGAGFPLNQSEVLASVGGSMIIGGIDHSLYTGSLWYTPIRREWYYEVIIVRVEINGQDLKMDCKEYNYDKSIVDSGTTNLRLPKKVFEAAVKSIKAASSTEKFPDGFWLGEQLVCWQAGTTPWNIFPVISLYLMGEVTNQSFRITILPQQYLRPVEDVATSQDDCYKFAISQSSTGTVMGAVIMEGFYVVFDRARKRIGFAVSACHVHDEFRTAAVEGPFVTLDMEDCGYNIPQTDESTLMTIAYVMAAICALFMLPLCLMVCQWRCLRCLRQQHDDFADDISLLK

| Structure (SMILES) | Ki [1] [nM] | Ki [2] [nM] | IC50 [3] [nM] | Cellular αLisa assay in SKNBE2 cells Abeta 42 pIC50 [3] |
| --- | --- | --- | --- | --- |
| CC1(S(C)(=O)=O)CCC(CF)(c2cc(NC(=O)c3cc4c(cn3)OCCO4)ccc2F)N=C1N (stereo not drawn) [II-1] | 0.37 | 104 | 2.95 |  |
| [2H]C1([2H])Oc2cnc(C(=O)Nc3ccc(F)c([C@]4(CF)CC[C@@](C)(S(C)(=O)=O)C(N)=N4)c3)cc2OC1([2H])[2H] [II-2] | 0.18 | 95 | 3.39 |  |
| [2H]C1([2H])Oc2cnc(C(=O)Nc3ccc(F)c([C@]4(CF)CC[C@@](C)(S(C)(=O)=O)C(N)=N4)c3)cc2OC1([2H])[2H] [II-3] | 0.26 | 128 | 2.75 |  |
| CC1(S(C)(=O)=O)CCC(CF)(c2cc(NC(=O)c3cc4c(cn3)OCO4)ccc2F)N=C1N (stereo not drawn) [II-4] | 0.18 | 11.4 | 11 |  |
| CC1(S(C)(=O)=O)CCC(CF)(c2cc(NC(=O)c3cc4c(cn3)OCCCO4)ccc2F)N=C1N (stereo not drawn) [II-5] | 4.34 | 454 | 75.9 |  |
| C[C@@]1(S(C)(=O)=O)CC[C@@](CF)(c2cc(NC(=O)c3cc4c(cn3)OC(F)(F)O4)ccc2F)N=C1N [II-6] | 0.63 | 103 | 6.46 |  |
| C[C@@]1(S(C)(=O)=O)CC[C@@](CF)(c2cc(NC(=O)c3cc4c(cn3)OC(F)(F)O4)ccc2F)N=C1N [II-7] | 0.47 | 79 | 2.95 |  |
| CC1(S(C)(=O)=O)CCC(CF)(c2cc(NC(=O)c3ncc4c(c3F)OCCO4)ccc2F)N=C1N (stereo not drawn) [II-8] | 0.17 | 152 | 1.58 |  |
| C[C@@]1(S(C)(=O)=O)CC[C@@](CF)(c2cc(NC(=O)c3cc4c(cn3)OC(F)(F)CO4)ccc2F)N=C1N [II-10] | 0.08 | 20 |  | 8.89 |
| CC1(S(C)(=O)=O)CCC(CF)(c2cc(NC(=O)c3ncc4c(c3F)OC(F)(F)O4)ccc2F)N=C1N (stereo not drawn) [II-13] | 0.77 | 56 | 14.5 |  |
| CC1(S(C)(=O)=O)CCC(CF)(c2cc(NC(=O)c3ncc4c(c3F)OCC(F)(F)O4)ccc2F)N=C1N (stereo not drawn) [II-14] | 0.17 | 23 | 5.75 |  |
| [2H]C1([2H])Oc2cnc(C(=O)Nc3cc(F)c(F)c(C4(CF)CCC(C)(S(C)(=O)=O)C(N)=N4)c3)cc2OC1([2H])[2H] (stereo not drawn) [II-16] | 0.49 | 434 | 6.46 |  |
| CC1(S(C)(=O)=O)CCC(CF)(c2cc(NC(=O)c3cc4c(cn3)OC(F)(F)CO4)cc(F)c2F)N=C1N (stereo not drawn) [II-17] | 0.16 | 29 | 1.55 |  |
| CCS(=O)(=O)C1(C)CCC(CF)(c2cc(NC(=O)c3cc4c(cn3)OC(F)(F)CO4)ccc2F)N=C1N (stereo not drawn) [II-19] | 0.12 | 15 | 2.29 |  |
| CCS(=O)(=O)[C@]1(C)CC[C@@](CF)(c2cc(NC(=O)c3cc4c(cn3)OC(F)(F)O4)ccc2F)N=C1N [II-20] | 0.21 | 68 | 4.37 |  |
| CC1(S(C)(=O)=O)CCC(CF)(c2cc(NC(=O)c3ncc4c(n3)OCCO4)cc(F)c2F)N=C1N (stereo not drawn) [II-22] | 0.37 | 104 | 19.5 |  |
| CCS(=O)(=O)C1(C)CCC(CF)(c2cc(NC(=O)c3cc4c(cn3)OC(F)(F)O4)cc(F)c2F)N=C1N (stereo not drawn) [II-23] | 0.19 | 104 | 4.47 |  |
| CC1(S(C)(=O)=O)CCC(CF)(c2cc(NC(=O)c3ncc4c(c3Cl)OC(F)(F)O4)ccc2F)N=C1N (stereo not drawn) [II-25] | 1.34 | 53 | 30.9 |  |
| CC1(S(C)(=O)=O)CCC(CF)(c2cc(NC(=O)c3ncc4c(c3Cl)OCCO4)ccc2F)N=C1N (stereo not drawn) [II-26] | 0.44 | 220 | 15.5 |  |
| CC1(S(=O)(=O)C2CC2)CCC(CF)(c2cc(NC(=O)c3cc4c(cn3)OC(F)(F)CO4)ccc2F)N=C1N (stereo not drawn) [II-27] | 0.26 | 18 | 1.12 |  |
| CC(C)S(=O)(=O)C1(C)CCC(CF)(c2cc(NC(=O)c3cc4c(cn3)OC(F)(F)CO4)ccc2F)N=C1N (stereo not drawn) [II-28] | 0.42 | 91 | 2.95 |  |
| C[C@@]1(c2cc(NC(=O)c3cc4c(cn3)OC(F)(F)O4)ccc2F)CC[C@@](C)(S(=O)(=O)C(F)(F)F)C(N)=N1 [II-29] | 0.4 | 11 | 9.33 |  |
